In US20260294770A1, “FORMULATIONS OF NARINGENIN” (DEBUT BIOTECHNOLOGY, INC., priority 2023, published 2026):

What was measured:
[1] = system: HSPA1A; assay: Downregulation of gene expression and/or activity, 1% naringenin: HSPA1A
Description: (§1) In certain embodiments, administration of a composition comprising naringenin leads to up-regulation of LCE5A, KRT77, ALOXE3, KRT1, HPGD, MUCL1, CASP14, WFDC12, KRT10, DNASE1L2, IL37, SERPINB12, HAL, UPK1A, CALML5, LCE2B, and/or MIR205. In certain embodiments, administration of a composition comprising naringenin leads to down-regulation of CCL11, CSF2, IL23A, IL11, BMP6, IL13RA2, C2CD4A, NR4A2, C2CD4B, FGF2, FARP4, GDF15, THBS1, HSPA1A, PTGS2, and/or DKK1. Tables 10 and 11 provide data for upregulation and downregulation respectively of certain genes after administration of compositions comprising 1% naringenin.
Heat shock protein family A (Hsp70) member 1A (HSPA1A) plays a role in clearing of aged cells and/or senolytic effect. In certain embodiments, the administration of compositions comprising naringenin leads to downregulation of expression and/or activity of HSPA1A. […] In certain embodiments, this may also lead to anti-aging effect for the skin. In certain embodiments, the administration of composition comprising naringenin results in at least about 2 to about 10-fold downregulation of expression and/or activity of HSPA1A. In certain embodiments, the administration of composition comprising naringenin results in at least about five (5) fold downregulation of expression and/or activity of HSPA1A.

[2] = system: IL11; assay: Downregulation of gene expression and/or activity, 1% naringenin: IL11
Description: as §1
Interleukin 11 (IL11) plays a role in the inflammatory pathway and in certain pathways that may be involved in cancer. In certain embodiments of the invention, downregulation of IL11 leads to an anti-inflammatory activity and/or anticancer activity. In certain embodiments, the administration of composition comprising naringenin results in at least about 10 to about 20-fold downregulation of expression and/or activity of IL11. In certain embodiments, the administration of composition comprising naringenin results in at least about ten (10) fold downregulation of expression and/or activity of IL11.

[3] = system: C2CD4A; assay: Downregulation of gene expression and/or activity, 1% naringenin: C2CD4A; settings: negative = downregulation
Description: as §1

[4] = system: HAL; assay: Upregulation of gene expression and/or activity, 1% naringenin: HAL
Description: as §1

[5] = system: IL23A; assay: Downregulation of gene expression and/or activity, 1% naringenin: IL23A
Description: as §1
Interleukin 23A (1L23A) plays a role in the inflammatory pathway. In certain embodiments of the invention, downregulation of IL23A leads to an anti-inflammatory activity. In certain embodiments, the administration of composition comprising naringenin results in at least about 10 to about 20-fold downregulation of expression and/or activity of 1L23A. In certain embodiments, the administration of composition comprising naringenin results in at least about fifteen (15) fold downregulation of expression and/or activity of IL23A.

[6] = system: MUCL1; assay: Upregulation of gene expression and/or activity, 1% naringenin: MUCL1
Description: as §1

[7] = system: HaCaT immortalized keratinocytes; settings: 10 μM; cited from earlier work
[8] = system: IL-6; assay: IL-6 concentration in stimulated (stressed) normal human epidermal keratinocytes (ELISA); type: cell-based; settings: for IL-6 concentration: LPS + Poly:IC stressed NHEK, stimulated control 1124.6
Description: Normal Human Epidermal Keratinocytes (NHEK) were stressed with a cocktail of lipopolysaccharide (LPS) and Polyinosinic-polycytidylic acid sodium salt (Poly:IC), external aggressors capable of inducing an inflammatory response. Stressed cells were subsequently treated with test articles and reduction in inflammatory markers was measuring by ELISA. Tables 19 and 20, provided below, discloses data for TNFα and IL-6 concentrations, respectively, in stressed normal human epidermal keratinocytes.

[9] = system: CALML5; assay: Upregulation of gene expression and/or activity, 1% naringenin: CALML5
Description: as §1
Calmodulin like 5 (CALML5) plays a role in cell growth. The enzyme encoded by CALML5 is a novel calcium binding protein expressed in the epidermis and related to the calmodulin family of calcium binding proteins. It plays a key role in cell growth and proliferation, including playing a key role in terminal differentiation of keratinocytes. In certain embodiments, administration of compositions comprising naringenin leads to upregulation of CALML5, which leads to increase cell proliferation, including the cells in the skin and the underlying tissues. […] In certain embodiments, the administration of composition comprising naringenin results in at least about 2 to about 10-fold upregulation of expression and/or activity of CALML5. […]

[10] = system: LCE2B; assay: Upregulation of gene expression and/or activity, 1% naringenin: LCE2B
Description: as §1
Late cornified envelope 2B (LCE2B) plays a role in the formation of precursors of the cornified envelope of the stratum corneum. It also leads to improved formation of outer skin protective barrier. In certain embodiments, the administration of composition comprising naringenin results in upregulation of LCE2B, which has a role in enhancing the outer skin protective barrier. In certain embodiments, the administration of composition comprising naringenin results in at least about 5 to about 20-fold upregulation of expression and/or activity of LCE2B. In certain embodiments, the administration of composition comprising naringenin results in at least about five (5) fold upregulation of expression and/or activity of LCE2B.

[11] = system: KRT77; assay: Upregulation of gene expression and/or activity, 1% naringenin: KRT77
Description: as §1
Kertain 77 (KRT77) is involved in production of keratin. In particular, KRT77 encodes an epithelial keratin that is expressed in the skin and eccrine sweat glands. KRT77 encodes keratin 77, a member of the type II keratin family of intermediate filament proteins. Keratin 77 is also known as KRT1B, Type II cytoskeletal 1b, Type IT keratin Kb39, and cytokeratin 1B. In certain embodiments, upregulation of expression and/or activity of KRT77, results in enhanced keratin production. The increased keratin production contributes to increase in the skin barrier strength. In certain embodiments, the administration of composition comprising naringenin results in at least about 5 to about 20-fold upregulation of expression and/or activity of KRT77. […]

O=C1C[C@@H](c2ccc(O)cc2)Oc2cc(O)cc(O)c21 [naringenin, (2S)-5,7-Dihydroxy-2-(4-hydroxyphenyl)-2,3-dihydro-4H-1-benzopyran-4-one]
fold downregulation in expression and/or activity of HSPA1A [1]: ~6 fold | Fold-increase (downregulation table) HSPA1A ([1]; negative = downregulation): −6 fold | fold downregulation in expression and/or activity of IL11 [2]: ~14 fold | Fold-increase (downregulation table) C2CD4A [3]: −10 fold | Fold-increase in expression and/or activity of HAL [4]: 8 fold | fold downregulation in expression and/or activity of IL23A [5]: ~18 fold | Fold-increase in expression and/or activity of MUCL1 [6]: 11 fold | Protection from UVB-induced apoptosis [7]: protecting HaCaT immortalized keratinocytes from UVB-induced apoptosis | IL-6 concentration ([8]; 0.0001% naringenin, p-value 0.0001): 395.8 pg/mL | IL-6 concentration ([8]; 0.0045% naringenin, p-value 0.0029): 42.0 pg/mL | IL-6 concentration ([8]; 0.007% naringenin, p-value 0.0030): 50.0 pg/mL | IL-6 concentration ([8]; 0.01% naringenin, p-value 0.0035): 76.6 pg/mL | inhibition at 0.0001 % ([8]; Homo sapiens, NHEK, 0.0001% naringenin, vs stimulated control, p-value 0.0001, read-out: IL-6 % Reduction vs Treated): 64.8% | inhibition at 0.0045 % ([8]; Homo sapiens, NHEK, 0.0045% naringenin, vs stimulated control, p-value 0.0029, read-out: IL-6 % Reduction vs Treated): 96.3% | inhibition at 0.007 % ([8]; Homo sapiens, NHEK, 0.007% naringenin, vs stimulated control, p-value 0.0030, read-out: IL-6 % Reduction vs Treated): 95.6% | inhibition at 0.01 % ([8]; Homo sapiens, NHEK, 0.01% naringenin, vs stimulated control, p-value 0.0035, read-out: IL-6 % Reduction vs Treated): 93.2% | Reduction of IL-6 (in words) ([8]; stressed keratinocytes): to non-stressed levels | Fold-increase in expression and/or activity of CALML5 [9]: ~7 fold | Fold-increase in expression and/or activity of LCE2B [10]: ~9 fold | Fold-increase in expression and/or activity of KRT77 [11]: ~12 fold
